The values that follow come from publication PMC3355656 (2012).

This experiment addresses CDK9 (Homo sapiens, UniProt P50750). As to the kind of experiment: DSF thermal shift. Type of experiment: binding.

Chain of CDK9 (P50750 1-330): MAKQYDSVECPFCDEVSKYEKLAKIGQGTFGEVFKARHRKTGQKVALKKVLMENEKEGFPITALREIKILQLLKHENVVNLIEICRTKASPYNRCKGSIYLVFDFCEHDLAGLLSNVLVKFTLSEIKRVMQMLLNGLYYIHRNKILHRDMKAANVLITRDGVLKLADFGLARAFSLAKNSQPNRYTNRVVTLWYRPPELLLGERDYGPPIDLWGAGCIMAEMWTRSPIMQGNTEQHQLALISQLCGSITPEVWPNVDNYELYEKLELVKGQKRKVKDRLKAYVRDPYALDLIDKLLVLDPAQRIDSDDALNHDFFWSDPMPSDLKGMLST
Chain of CDK9 (O60563 1-259 partner): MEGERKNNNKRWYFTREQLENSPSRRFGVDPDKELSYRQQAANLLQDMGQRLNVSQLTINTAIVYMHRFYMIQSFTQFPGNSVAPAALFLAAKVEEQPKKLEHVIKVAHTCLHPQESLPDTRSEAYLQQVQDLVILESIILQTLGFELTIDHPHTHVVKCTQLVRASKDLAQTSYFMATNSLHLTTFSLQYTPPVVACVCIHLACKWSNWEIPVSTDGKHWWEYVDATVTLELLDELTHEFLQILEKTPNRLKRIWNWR

Consider `OC[C@H]1O[C@@H](n2cnc3cc(Cl)c(Cl)cc32)[C@H](O)[C@@H]1O` [DRB], for which the “DSF thermal shift (no Kd)” value is “we tested the ability of known CDK9 inhibitors (DRB, CAN508, (S)-CR8, Roscovitine, Staurosporine”.
